≈ marks a conversion by molar mass, not a printed value. Like-named read-outs stand apart in the source and are kept apart here.
Experiments:
[1] = test system: Mab massiliense CCUG 48898-T; assay: MIC against Mab massiliense CCUG 48898-T; assay type: cell-based, Mycobacterium abscessus subsp. massiliense; settings: for MIC50 Mab massiliense CCUG 48898-T: 3 days
Mtb H37Rv = assay: MIC by broth microdilution against Mtb H37Rv; assay type: cell-based, Mycobacterium tuberculosis; settings: incubation 5 days; for MIC50 Mtb H37Rv: first value of cell MIC50/MIC90; for MIC90: second value of cell MIC50/MIC90, read-out: MIC90 Mtb H37Rv
HepG2 = assay: Cytotoxicity in HepG2 cells; assay type: cell-based, human; settings: 48 h, growth suppressed by 50% vs untreated
Protocol: (§1) To each well in a 96-well plate, 50,000 cells in 100 μL media were seeded. Vero E6 and HepG2 cells were incubated overnight in DMEM for cell adherence at 37°C and 5% CO2. The media was removed from the wells and 100 μL solution made up of fresh DMEM media (99 μL) and the test compound (1 μL from a DMSO stock solution that was […] more concentrated than the final concentration in the well) was then added to each well. DMSO content of each well was consistently kept at 0.5 %v/v. Treated plates were incubated for 48 h (5% CO2, 37°C), after which 10 μL of Celltitre 96 Aqueous One Solution was added to each well, without removal of media, and incubated for a further 3 h. Subsequently, absorbance readings were taken at 490 nm on a Tecan GENios Microplate Reader.
(§2) Cell viability was determined from the expression: Cellviability(%)={[Absorbance(cells+cpd)−Absorbance(cpd)]/[Absorbance(cells+vc)−Absorbance(vc)]}×100% where Absorbance (cells + cpd) = absorbance of wells containing cells and test compound in vehicle (media +0.5% DMSO); Absorbance (cpd) = absorbance of wells containing test compound in vehicle without cells (compound control); Absorbance (cells + vc) = absorbance of wells containing cells in vehicle (vc) only (untreated cells); Absorbance (vc) = absorbance of wells containing vehicle without cells (vehicle control). The percentage viability readings were plotted against log(concentration) on GraphPad Prism (Version 7.0, San Diego, CA) to give a sigmoidal curve, from which IC50, defined as the concentration of the compound that reduced cell viability by 50%, was obtained. At least 3 separate determinations were carried out.

[2] = test system: Mab bolletii CCUG 50184-T; assay: MIC against Mab bolletii CCUG 50184-T; assay type: cell-based, Mycobacterium abscessus subsp. bolletii; settings: for MIC50 Mab bolletii CCUG 50184-T: 3 days
M. bovis BCG [3] = assay: microbe, parasite or virus in culture; assay type: cell-based, Mycobacterium bovis BCG
clinical isolates of Mab = assay: MIC50 against Mab clinical isolates; assay type: cell-based, Mycobacterium abscessus; settings: range over isolates
Mab abscessus ATCC 19977 = assay: MIC against Mab abscessus ATCC 19977; assay type: cell-based, Mycobacterium abscessus subsp. abscessus; settings: for MIC90: read-out: MIC90 Mab abscessus ATCC 19977; for MIC50 Mab abscessus ATCC 19977: 3 days
Vero E6 = assay: Cytotoxicity in Vero E6 cells; assay type: cell-based, African green monkey; settings: 48 h, growth suppressed by 50% vs untreated
Protocol: as §1, §2

M. bovis BCG [4] = assay type: cell-based, Mycobacterium bovis BCG
M. smegmatis mc2155 = assay: MIC against M. smegmatis mc2155; assay type: cell-based, Mycobacterium smegmatis; settings: Mycolicibacterium smegmatis
M. bovis BCG [5] = assay type: cell-based, Mycobacterium bovis BCG; remark: listed apart in the source
[6] = 7H9 medium (first value of cell)
[7] = CA-MHB medium (second value of cell)

Row | Structure (SMILES) | MIC90 ([1]; 7H9 broth (first value)) | MIC50 Mab massiliense CCUG 48898-T [1, 6] | MIC50 Mab massiliense CCUG 48898-T [1, 7] | MIC90 ([1]; camH broth (second value)) | MIC50 Mtb H37Rv (Mtb H37Rv) | IC50 (HepG2) | MIC90 ([2]; 7H9 broth (first value)) | MIC50 Mab bolletii CCUG 50184-T [2, 6] | MIC90 ([2]; camH broth (second value)) | MIC50 (M. bovis BCG [3]) | MIC50 BCG Without Glycerol (M. bovis BCG [3]) | MIC90 (Table S1) (M. bovis BCG [3]) | MIC90 (Mab abscessus ATCC 19977; 7H9 broth (first value)) | MIC50 Mab abscessus ATCC 19977 (Mab abscessus ATCC 19977; [6]) | MIC50 Mab abscessus ATCC 19977 (Mab abscessus ATCC 19977; [7]) | MIC90 (Mab abscessus ATCC 19977; camH broth (second value)) | IC50 (Vero E6) | MIC90 (M. bovis BCG [3]) | MIC90 BCG (M. bovis BCG [3]) | other results
1 | COc1ccc(CCN(C)CCCC(C#N)(C/C=C(\C)CCC=C(C)C)c2ccc(OC)c(OC)c2)cc1OC (racemic) [PhA3] | 96 µM (≈ 52.7 µg/mL) | 42 µM (≈ 23 µg/mL) | 10 µM (≈ 5.49 µg/mL) | 56 µM (≈ 30.7 µg/mL) | 19 µM (≈ 10.4 µg/mL) | 32 µM | 98 µM (≈ 53.8 µg/mL) | 47 µM (≈ 25.8 µg/mL) | 26 µM (≈ 14.3 µg/mL) | 11 µM (≈ 6.04 µg/mL) | 18 µM (≈ 9.88 µg/mL) | 22 µM (≈ 12.1 µg/mL) | 104 µM (≈ 57.1 µg/mL) | 47 µM (≈ 25.8 µg/mL) | 17 µM (≈ 9.33 µg/mL) | 31 µM (≈ 17 µg/mL) | 27 µM |  |  | MIC90 (Mtb H37Rv): 42 µM (≈ 23 µg/mL); MIC50 Mab bolletii CCUG 50184-T [2, 7]: 13 µM (≈ 7.13 µg/mL); MIC50 BCG With Glycerol (M. bovis BCG [3]): 11 µM (≈ 6.04 µg/mL); MIC50 seven Mab clinical isolates (clinical isolates of Mab): 12 to 21 mg/L; CFUs above the detection limit (M. bovis BCG [4]): 10–100 times
2 | COc1ccc(CCN(C)CCCC(C#N)(CCCCCCCN=[N+]=[N-])c2ccc(OC)c(OC)c2)cc1OC (stereo not shown) [AZ-2] |  |  |  |  |  |  |  |  |  |  |  |  |  |  |  |  |  |  |  | MIC90 (M. bovis BCG [3]; Mycobacterium tuberculosis variant bovis BCG, BCG, M. bovis BCG, broth dilution, growth reduced by 90% vs untreated): 27 µM (≈ 14.9 µg/mL); MIC50 (M. bovis BCG [3]; Mycobacterium tuberculosis variant bovis BCG, BCG, read-out: M. bovis BCG MIC50 (Table S4)): 12 µM (≈ 6.62 µg/mL); MIC90 (M. bovis BCG [3]; Mycobacterium tuberculosis variant bovis BCG, BCG, read-out: M. bovis BCG MIC90 (Table S4)): 27 µM (≈ 14.9 µg/mL); MIC50 (M. smegmatis mc2155; MC2155, 24 h, incubation 1 day, read-out: M. smegmatis mc2155 MIC50 (Table S4)): 38 µM (≈ 21 µg/mL); MIC90 (M. smegmatis mc2155; MC2155, 24 h, incubation 1 day, read-out: M. smegmatis mc2155 MIC90 (Table S4)): 58 µM (≈ 32 µg/mL); MIC90 (M. smegmatis mc2155; MC2155, read-out: MIC90 M. smegmatis): 58 µM (≈ 32 µg/mL)
3 | COc1ccc(CCN(C)CCCC(C#N)(c2ccc(OC)c(OC)c2)C2CCCCCCC2)cc1OC (stereo not shown) [PhA4] |  |  |  |  |  |  |  |  |  | 23 µM (≈ 12 µg/mL) |  | 44 µM (≈ 23 µg/mL) |  |  |  |  |  | 44 µM (≈ 23 µg/mL) |  | 
4 | COc1ccc(CCN(C)CCCC(C#N)(Cc2ccc(Br)cc2)c2ccc(OC)c(OC)c2)cc1OC (stereo not shown) [PhA5] |  |  |  |  |  |  |  |  |  | 17 µM (≈ 9.89 µg/mL) |  | 43 µM (≈ 25 µg/mL) |  |  |  |  |  | 43 µM (≈ 25 µg/mL) |  | 
5 | COc1ccc(CCN(C)CCCC(C#N)(Cc2cccc(Cl)c2)c2ccc(OC)c(OC)c2)cc1OC (stereo not shown) [PhA6] |  |  |  |  |  |  |  |  |  | 17 µM (≈ 9.13 µg/mL) |  | 45 µM (≈ 24.2 µg/mL) |  |  |  |  |  | 45 µM (≈ 24.2 µg/mL) |  | 
6 | COc1ccc(CCN(C)CCCC(C#N)(c2ccc(Cl)c(Cl)c2)C(C)C)cc1OC (stereo not shown) [PhA7] |  |  |  |  |  |  |  |  |  | 27 µM (≈ 12.5 µg/mL) |  | 47 µM (≈ 21.8 µg/mL) |  |  |  |  |  | 47 µM (≈ 21.8 µg/mL) |  | 
7 | COc1ccc(C(C#N)(CCCN(C)CCc2ccc(Cl)c(Cl)c2)C(C)C)cc1OC (stereo not shown) [PhA8] |  |  |  |  |  |  |  |  |  | 26 µM (≈ 12 µg/mL) |  | 45 µM (≈ 20.9 µg/mL) |  |  |  |  |  | 45 µM (≈ 20.9 µg/mL) |  | 
8 | COc1ccc(CCN(C)CCCCCCCCCCC(C#N)(c2ccc(OC)c(OC)c2)C(C)C)cc1OC (stereo not shown) [PhA9] | > 200 µM | 123/– ^e uM |  |  |  | 15 µM | 200 µM (≈ 111 µg/mL) | 103/– ^e uM |  | 11 µM (≈ 6.08 µg/mL) | 22 µM (≈ 12.2 µg/mL) | 22 µM (≈ 12.2 µg/mL) | 190 µM (≈ 105 µg/mL) | 74/– ^e uM |  |  | 15 µM | 22 µM (≈ 12.2 µg/mL) | 12 mg/L (≈ 21.7 µM) | MBC99.9 (10^3-fold kill) (M. bovis BCG [5]): 2 x MIC90; MIC50 BCG With Glycerol (M. bovis BCG [3]): 11 µM (≈ 6.08 µg/mL)
9 | COc1ccc(CCN(C)CCCCCCCCCCCCC(C#N)(c2ccc(OC)c(OC)c2)C(C)C)cc1OC (stereo not shown) [PhA10] |  |  |  |  |  |  |  |  |  | 18 µM (≈ 10.5 µg/mL) |  | 32 µM (≈ 18.6 µg/mL) |  |  |  |  |  | 32 µM (≈ 18.6 µg/mL) |  | 
10 | COc1ccc(CCN(C)CCCC(C#N)(CCC2CCCCC2)c2ccc(Cl)c(Cl)c2)cc1OC (stereo not shown) [PhA11] | > 250 µM | > 250 µM | 21 µM (≈ 11.2 µg/mL) | > 250 µM | 19/40 μM | 44 µM | > 250 µM | > 250 µM | > 250 µM | 14 µM (≈ 7.44 µg/mL) | 46 µM (≈ 24.5 µg/mL) | 25 µM (≈ 13.3 µg/mL) | > 250 µM | > 250 µM | 175 µM (≈ 93 µg/mL) | > 250 µM | 57 µM | 25 µM (≈ 13.3 µg/mL) | 13 mg/L (≈ 24.5 µM) | MIC90 Mtb H37Rv (Mtb H37Rv): 19/40 μM; MIC50 Mab bolletii CCUG 50184-T [2, 7]: 160 µM (≈ 85.1 µg/mL)
11 | CCCCCCCCC(C#N)(CCCN(C)CCc1ccc(OC)c(OC)c1)c1ccc(Cl)c(Cl)c1 (stereo not shown) [PhA12] | > 250 µM | > 250 µM | 31 µM (≈ 16.5 µg/mL) | > 250 µM | 23/46 μM | 51 µM | > 250 µM | > 250 µM | > 250 µM | 16 µM (≈ 8.54 µg/mL) | 35 µM (≈ 18.7 µg/mL) | 29 µM (≈ 15.5 µg/mL) | > 250 µM | > 250 µM | 194 µM (≈ 104 µg/mL) | > 250 µM | 69 µM | 29 µM (≈ 15.5 µg/mL) | 16 mg/L (≈ 30 µM) | MIC90 Mtb H37Rv (Mtb H37Rv): 23/46 μM; MBC99.9 (10^3-fold kill) (M. bovis BCG [5]): 4 x MIC90; MIC50 Mab bolletii CCUG 50184-T [2, 7]: 72 µM (≈ 38.4 µg/mL)
12 | COc1ccc(CCN(C)CCCC(C#N)(CC=C(C)CCC=C(C)C)c2ccc(Cl)c(Cl)c2)cc1OC (stereo not shown) [PhA13] | > 250 µM | > 250 µM | 23 µM (≈ 12.8 µg/mL) | > 250 µM | 21 µM (≈ 11.7 µg/mL) | 42 µM | > 250 µM |  | > 250 µM | 12 µM (≈ 6.69 µg/mL) | 30 µM (≈ 16.7 µg/mL) | 23 µM (≈ 12.8 µg/mL) | > 250 µM | >250/250 uM | >250/250 uM | > 250 µM | 60 µM | 23 µM (≈ 12.8 µg/mL) | 13 mg/L (≈ 23.3 µM) | MIC90 (Mtb H37Rv): 45 µM (≈ 25.1 µg/mL); MIC50 BCG With Glycerol (M. bovis BCG [3]): 12 µM (≈ 6.69 µg/mL)
